According to patent publication EP4818168A1, “FUSED RING COMPOUND, PHARMACEUTICAL COMPOSITION THEREOF AND USE THEREOF” (priority 2023, dated 2025):
pIC50: −log10 of the molar value. Where two headings read alike, the source gives them in different places.

Legend:
H82 cells = test: cells; format: cell-based; details: Homo sapiens
Summary of the method: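 H82 cells in RPMI1640 + 10% FBS exposed to compound (0.1% DMSO final) for 6 days at 37 °C, 5% CO2. Viability read by CellTiter-Glo ATP luminescence, normalised to DMSO and medium controls; IC50 from nonlinear regression of the dose–survival curve.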

AURKA = molecular target: T1, AURKA (Homo sapiens, UniProt O14965); format: cell-based
T1 construct: endogenous in cells; host or cells: Jurkat cells
T1 sequence (O14965 1-403): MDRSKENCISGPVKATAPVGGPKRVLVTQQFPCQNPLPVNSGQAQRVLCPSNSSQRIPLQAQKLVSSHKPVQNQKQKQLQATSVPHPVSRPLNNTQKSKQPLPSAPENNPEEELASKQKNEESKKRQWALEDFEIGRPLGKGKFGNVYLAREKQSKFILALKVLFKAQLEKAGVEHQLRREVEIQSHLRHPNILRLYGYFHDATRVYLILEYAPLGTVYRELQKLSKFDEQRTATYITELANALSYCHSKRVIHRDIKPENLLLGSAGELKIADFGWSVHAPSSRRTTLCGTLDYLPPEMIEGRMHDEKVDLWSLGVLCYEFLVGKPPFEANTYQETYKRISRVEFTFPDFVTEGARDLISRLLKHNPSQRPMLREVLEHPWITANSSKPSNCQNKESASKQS
Summary of the method: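 Jurkat cells seeded at 1×10^6 cells/500 µL and treated with compound; lysates run on SDS-PAGE, blotted to nitrocellulose and probed overnight at 4°C for AURKA. Chemiluminescent or fluorescent band intensity fitted to a curve to give DC50 for protein degradation.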

[1] = NCI-H82, H82 cells, 4000 cells/well, CellTiter-Glo, read-out: IC50 in H82 Cells
[2] = 100 nM compound, Jurkat cells, 24 h, Table 2
[3] = 1 µM compound, Jurkat cells, 24 h, Table 2
[4] = NCI-H82, read-out: IC50 in H82 Cells

Row | Structure (SMILES) | pIC50 (H82 cells; [1]) | Percentage of AURKA Degradation Induced by 100 nM Compound in Jurkat Cells (AURKA; [2]) | Percentage of AURKA Degradation Induced by 1 µM Compound in Jurkat Cells (AURKA; [3]) | pIC50 (H82 cells; [4]) | Percentage of AURKA Degradation Induced by 100 nM Compound in Jurkat Cells (AURKA) | Percentage of AURKA Degradation Induced by 1 µM Compound in Jurkat Cells (AURKA)
1 | O=C1CCN(c2cnc(N3CC(CN4CCN(c5ccc(Nc6ncc7c(n6)-c6ccc(Cl)cc6C(c6c(F)cccc6F)=NC7)cc5)C(=O)C4)C3)s2)C(=O)N1 [Compound A203] | > 6.00 | ++ (30% < Degradation ≤ 70%) | +++ (Degradation > 70%) |  |  | 
2 | O=C1CCN(c2cncc(N3CC(CN4CCc5ccc(Nc6ncc7c(n6)-c6ccc(Cl)cc6C(c6c(F)cccc6F)=NC7)cc5C4)C3)c2)C(=O)N1 [Compound A209] |  | +++ (Degradation > 70%) | +++ (Degradation > 70%) | > 6.00 |  | 
3 | N#Cc1cc(Nc2ncc3c(n2)-c2ccc(Cl)cc2C(c2c(F)cccc2F)=NC3)ccc1N1CCN(C2CCN(c3ccc(N4CCC(=O)NC4=O)cn3)CC2)CC1 [Compound A211] | > 6.00 | ++ (30% < Degradation ≤ 70%) | +++ (Degradation > 70%) |  |  | 
4 | O=C1CCN(c2ccc(N3CCC(N4CCN(c5ccc(Nc6ncc7c(n6)-c6ccc(Cl)cc6C(c6c(F)cccc6F)=NC7)cn5)CC4)CC3)nc2)C(=O)N1 [Compound A213] | > 6.00 | +++ (Degradation > 70%) | +++ (Degradation > 70%) |  |  | 
5 | O=C1CCN(c2cncc(N3CC(CN4CCOc5ccc(Nc6ncc7c(n6)-c6ccc(Cl)cc6C(c6c(F)cccc6F)=NC7)cc5C4)C3)c2)C(=O)N1 [Compound A214] | > 6.00 | +++ (Degradation > 70%) | + (Degradation ≤ 30%) |  |  | 
6 | O=C1CCN(c2ccc(N3CCC(N4CCN(C56CC(Nc7ncc8c(n7)-c7ccc(Cl)cc7C(c7c(F)cccc7F)=NC8)(C5)C6)CC4)CC3)nc2)C(=O)N1 [Compound A216] | > 6.00 | ++ (30% < Degradation ≤ 70%) | ++ (30% < Degradation ≤ 70%) |  |  | 
7 | O=C1CCN(c2ccc(N3CCC(N4CCN(c5ccc(Nc6ncc7c(n6)-c6ccc(Cl)cc6C(c6c(F)cccc6F)=NC7)cc5)C5(CC5)C4)CC3)nc2)C(=O)N1 [Compound A217] | > 6.00 | + (Degradation ≤ 30%) | + (Degradation ≤ 30%) |  |  | 
8 | O=C1CCN(c2ccc(N3CC(CN4CCN(C56CC(Nc7ncc8c(n7)-c7ccc(Cl)cc7C(c7c(F)cccc7F)=NC8)(C5)C6)CC4)C3)nc2)C(=O)N1 [Compound A219] | > 6.00 | +++ (Degradation > 70%) | +++ (Degradation > 70%) |  |  | 
9 | O=C1CCN(c2cccc(N3CCC(N4CC5(CN(c6cccc(Nc7ncc8c(n7)-c7ccc(Cl)cc7C(c7c(F)cccc7F)=NC8)c6)C5)C4)CC3)c2)C(=O)N1 [Compound A223] |  |  |  | > 6.00 | +++ (key: +: Degradation ≤ 30%; ++: 30% < Degradation ≤ 70%; +++: Degradation > 70%) | +++ (key: +: Degradation ≤ 30%; ++: 30% < Degradation ≤ 70%; +++: Degradation > 70%)
10 | CN1CCN(CC2CN(c3cncc(N4CCC(=O)NC4=O)c3)C2)Cc2cc(Nc3ncc4c(n3)-c3ccc(Cl)cc3C(c3c(F)cccc3F)=NC4)ccc21 [Compound A225] | > 6.00 | +++ (Degradation > 70%) | + (Degradation ≤ 30%) |  |  | 
11 | O=C1CCN(c2ccc(N3CCC(N4CCN(C56CC(Nc7ncc8c(n7)-c7ccc(Cl)cc7C(c7c(F)cccc7F)=NC8)(C5)C6)CC4)C3)nc2)C(=O)N1 (stereo not drawn) [Compound A227] | > 6.00 | ++ (30% < Degradation ≤ 70%) | + (Degradation ≤ 30%) |  |  | 
12 | O=C1CCN(c2ccc(N3CCC(C(=O)N4CCN(c5ccc(Nc6ncc7c(n6)-c6ccc(Cl)cc6C(c6c(F)cccc6F)=NC7)cc5)CC4)CC3)nc2)C(=O)N1 [Compound A229] | > 6.00 | +++ (Degradation > 70%) | +++ (Degradation > 70%) |  |  | 
13 | O=C1CCN(c2ccc(N3CCC(CN4CCN(C56CC(Nc7ncc8c(n7)-c7ccc(Cl)cc7C(c7c(F)cccc7F)=NC8)(C5)C6)CC4)C3)nc2)C(=O)N1 (stereo not drawn) [Compound A231] | > 6.00 | +++ (Degradation > 70%) | +++ (Degradation > 70%) |  |  | 
14 | O=C1CCN(c2ccc(N3CCC(N4CCN(c5ccc(Nc6ncc7c(n6)-c6ccc(Cl)cc6C(c6c(F)cccc6F)=NC7)cc5)C5(COC5)C4)CC3)nc2)C(=O)N1 [Compound A233] | > 6.00 | ++ (30% < Degradation ≤ 70%) | +++ (Degradation > 70%) |  |  | 
15 | O=C1CCN(c2cccc(N3CC(C(=O)N4CCOc5ccc(Nc6ncc7c(n6)-c6ccc(Cl)cc6C(c6c(F)cccc6F)=NC7)cc5C4)C3)c2)C(=O)N1 [Compound A235] | > 6.00 | ++ (30% < Degradation ≤ 70%) | + (Degradation ≤ 30%) |  |  | 
16 | CN1CCN(CC2CN(c3cccc(N4CCC(=O)NC4=O)c3)C2)Cc2cc(Nc3ncc4c(n3)-c3ccc(Cl)cc3C(c3c(F)cccc3F)=NC4)ccc21 [Compound A236] | > 6.00 | +++ (Degradation > 70%) | ++ (30% < Degradation ≤ 70%) |  |  | 
17 | O=C1CCN(c2cccc(N3CC(CN4CCOc5ccc(Nc6ncc7c(n6)-c6ccc(Cl)cc6C(c6c(F)cccc6F)=NC7)cc5C4)C3)c2)C(=O)N1 [Compound A237] | > 6.00 | +++ (Degradation > 70%) | +++ (Degradation > 70%) |  |  | 
18 | CN1CCN(CC2CCN(c3cccc(N4CCC(=O)NC4=O)c3)CC2)Cc2cc(Nc3ncc4c(n3)-c3ccc(Cl)cc3C(c3c(F)cccc3F)=NC4)ccc21 [Compound A239] | > 6.00 | +++ (Degradation > 70%) | +++ (Degradation > 70%) |  |  | 
19 | O=C1CCN(c2cccc(N3CCC(CN4CCOc5ccc(Nc6ncc7c(n6)-c6ccc(Cl)cc6C(c6c(F)cccc6F)=NC7)cc5C4)CC3)c2)C(=O)N1 [Compound A240] | > 6.00 | +++ (Degradation > 70%) | +++ (Degradation > 70%) |  |  | 
20 | O=C1CCN(c2ccc(N3CCN(C(=O)C4CCN(C56CC(Nc7ncc8c(n7)-c7ccc(Cl)cc7C(c7c(F)cccc7F)=NC8)(C5)C6)CC4)CC3)nc2)C(=O)N1 [Compound A243] | > 6.00 | +++ (Degradation > 70%) | +++ (Degradation > 70%) |  |  | 
21 | Cn1nc(N2CCC(=O)NC2=O)c2cc(F)c(N3CCN(C4CN(c5cccc(Nc6ncc7c(n6)-c6ccc(Cl)cc6C(c6c(F)cccc6F)=NC7)c5)C4)CC3)cc21 [Compound A244] | > 6.00 | ++ (30% < Degradation ≤ 70%) | +++ (Degradation > 70%) |  |  | 
22 | Cn1nc(N2CCC(=O)NC2=O)c2cc(F)c(N3CCN(CC4CN(c5cccc(Nc6ncc7c(n6)-c6ccc(Cl)cc6C(c6c(F)cccc6F)=NC7)c5)C4)CC3)cc21 [Compound A245] | > 6.00 | +++ (Degradation > 70%) | +++ (Degradation > 70%) |  |  | 
23 | O=C1CCN(c2ccc(N3CCN(CC4CN(c5ccc(Nc6ncc7c(n6)-c6ccc(Cl)cc6C(c6c(F)cccc6F)=NC7)cn5)C4)CC3)nc2)C(=O)N1 [Compound A248] | > 6.00 | +++ (Degradation > 70%) | +++ (Degradation > 70%) |  |  | 
